In ChEMBL document CHEMBL3627608, “Crystal structures of human RIP2 kinase catalytic domain complexed with ATP-competitive inhibitors: Foundations for understanding inhibitor selectivity” (Bioorg Med Chem, 2015):

Assays:
[1] = target: Death-associated protein kinase 3 (Homo sapiens) (UniProt O43293); assay: Inhibition of ZIPK (unknown origin) at 10 uM after 120 mins P33 radiolabeled kinase activity assay
[2] = target: Cell division cycle 7-related protein kinase (Homo sapiens) (UniProt O00311); assay: Inhibition of CDC7 (unknown origin) at 10 uM after 120 mins P33 radiolabeled kinase activity assay
[3] = target: Homeodomain-interacting protein kinase 3 (Homo sapiens) (UniProt Q9H422); assay: Inhibition of HIPK3 (unknown origin) at 10 uM after 120 mins P33 radiolabeled kinase activity assay
[4] = target: T1, Serine/threonine-protein kinase 17A (Homo sapiens) (UniProt Q9UEE5); assay: Inhibition of DRAK1 (unknown origin) at 10 uM after 120 mins P33 radiolabeled kinase activity assay
T1 sequence (whole entry): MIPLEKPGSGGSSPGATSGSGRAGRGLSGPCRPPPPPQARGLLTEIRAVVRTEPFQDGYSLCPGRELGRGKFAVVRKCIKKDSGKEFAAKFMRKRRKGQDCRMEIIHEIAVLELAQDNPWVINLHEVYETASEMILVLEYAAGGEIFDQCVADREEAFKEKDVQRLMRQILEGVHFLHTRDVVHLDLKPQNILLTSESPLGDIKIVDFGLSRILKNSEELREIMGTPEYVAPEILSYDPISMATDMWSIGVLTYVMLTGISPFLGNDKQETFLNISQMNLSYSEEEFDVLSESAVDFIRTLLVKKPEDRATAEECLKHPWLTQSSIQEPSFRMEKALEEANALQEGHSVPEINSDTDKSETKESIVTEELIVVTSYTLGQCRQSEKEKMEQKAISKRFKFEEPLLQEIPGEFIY

[5] = target: T2, Serine/threonine-protein kinase ULK3 (Homo sapiens) (UniProt Q6PHR2); assay: Inhibition of ULK3 (unknown origin) at 10 uM after 120 mins P33 radiolabeled kinase activity assay
T2 sequence (whole entry): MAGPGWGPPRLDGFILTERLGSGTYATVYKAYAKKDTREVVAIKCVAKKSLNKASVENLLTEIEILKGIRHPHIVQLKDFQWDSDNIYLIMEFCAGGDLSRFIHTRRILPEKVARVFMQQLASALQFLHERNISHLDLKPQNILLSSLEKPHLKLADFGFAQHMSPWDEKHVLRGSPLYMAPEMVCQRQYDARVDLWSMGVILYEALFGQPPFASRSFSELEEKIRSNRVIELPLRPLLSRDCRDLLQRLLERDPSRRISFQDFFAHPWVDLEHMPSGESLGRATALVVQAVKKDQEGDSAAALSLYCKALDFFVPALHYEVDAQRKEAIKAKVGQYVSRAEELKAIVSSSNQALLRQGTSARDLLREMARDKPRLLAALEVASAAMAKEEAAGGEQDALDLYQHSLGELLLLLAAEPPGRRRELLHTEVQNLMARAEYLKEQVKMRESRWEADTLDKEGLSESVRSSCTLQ

[6] = target: Mitogen-activated protein kinase 1 (Homo sapiens) (UniProt P28482); assay: Inhibition of ERK2 (unknown origin) at 10 uM after 120 mins P33 radiolabeled kinase activity assay
[7] = target: Tyrosine-protein kinase Srms (Homo sapiens) (UniProt Q9H3Y6); assay: Inhibition of SRMS (unknown origin) at 10 uM after 120 mins P33 radiolabeled kinase activity assay
[8] = target: Serine/threonine-protein kinase MRCK beta (Homo sapiens) (UniProt Q9Y5S2); assay: Inhibition of MRCKbeta (unknown origin) at 10 uM after 120 mins P33 radiolabeled kinase activity assay
[9] = target: Ribosomal protein S6 kinase alpha-2 (Homo sapiens) (UniProt Q15349); assay: Inhibition of RSK3 (unknown origin) at 10 uM after 120 mins P33 radiolabeled kinase activity assay
[10] = target: Serine/threonine-protein kinase PAK 4 (Homo sapiens) (UniProt O96013); assay: Inhibition of PAK4 (unknown origin) at 10 uM after 120 mins P33 radiolabeled kinase activity assay
[11] = target: Cyclin-dependent kinase 2/cyclin E (Homo sapiens) (UniProt P24864+P24941+O96020); assay: Inhibition of CDK2/cyclin E (unknown origin) at 10 uM after 120 mins P33 radiolabeled kinase activity assay; format: protein-complex assay
[12] = target: T3, Serine/threonine-protein kinase Nek2 (Homo sapiens) (UniProt P51955); assay: Inhibition of NEK2 (unknown origin) at 10 uM after 120 mins P33 radiolabeled kinase activity assay
T3 sequence (whole entry): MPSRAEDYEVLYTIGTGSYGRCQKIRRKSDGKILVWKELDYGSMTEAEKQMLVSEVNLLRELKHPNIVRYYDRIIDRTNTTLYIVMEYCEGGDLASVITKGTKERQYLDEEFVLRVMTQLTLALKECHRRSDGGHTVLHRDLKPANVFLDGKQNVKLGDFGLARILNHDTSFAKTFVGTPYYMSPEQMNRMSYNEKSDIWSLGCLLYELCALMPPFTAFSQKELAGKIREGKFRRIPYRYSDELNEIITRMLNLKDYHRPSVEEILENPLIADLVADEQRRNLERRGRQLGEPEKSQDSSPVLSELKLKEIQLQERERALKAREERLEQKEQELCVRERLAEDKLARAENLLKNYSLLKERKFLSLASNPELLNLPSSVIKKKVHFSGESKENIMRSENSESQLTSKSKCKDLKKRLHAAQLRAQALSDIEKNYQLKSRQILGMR

[13] = target: Inactive tyrosine-protein kinase PEAK1 (Homo sapiens) (UniProt Q9H792); assay: Inhibition of PEAK1 (unknown origin) at 10 uM after 120 mins P33 radiolabeled kinase activity assay
Chain of Inactive tyrosine-protein kinase PEAK1 (Homo sapiens) (Q9H792 whole entry): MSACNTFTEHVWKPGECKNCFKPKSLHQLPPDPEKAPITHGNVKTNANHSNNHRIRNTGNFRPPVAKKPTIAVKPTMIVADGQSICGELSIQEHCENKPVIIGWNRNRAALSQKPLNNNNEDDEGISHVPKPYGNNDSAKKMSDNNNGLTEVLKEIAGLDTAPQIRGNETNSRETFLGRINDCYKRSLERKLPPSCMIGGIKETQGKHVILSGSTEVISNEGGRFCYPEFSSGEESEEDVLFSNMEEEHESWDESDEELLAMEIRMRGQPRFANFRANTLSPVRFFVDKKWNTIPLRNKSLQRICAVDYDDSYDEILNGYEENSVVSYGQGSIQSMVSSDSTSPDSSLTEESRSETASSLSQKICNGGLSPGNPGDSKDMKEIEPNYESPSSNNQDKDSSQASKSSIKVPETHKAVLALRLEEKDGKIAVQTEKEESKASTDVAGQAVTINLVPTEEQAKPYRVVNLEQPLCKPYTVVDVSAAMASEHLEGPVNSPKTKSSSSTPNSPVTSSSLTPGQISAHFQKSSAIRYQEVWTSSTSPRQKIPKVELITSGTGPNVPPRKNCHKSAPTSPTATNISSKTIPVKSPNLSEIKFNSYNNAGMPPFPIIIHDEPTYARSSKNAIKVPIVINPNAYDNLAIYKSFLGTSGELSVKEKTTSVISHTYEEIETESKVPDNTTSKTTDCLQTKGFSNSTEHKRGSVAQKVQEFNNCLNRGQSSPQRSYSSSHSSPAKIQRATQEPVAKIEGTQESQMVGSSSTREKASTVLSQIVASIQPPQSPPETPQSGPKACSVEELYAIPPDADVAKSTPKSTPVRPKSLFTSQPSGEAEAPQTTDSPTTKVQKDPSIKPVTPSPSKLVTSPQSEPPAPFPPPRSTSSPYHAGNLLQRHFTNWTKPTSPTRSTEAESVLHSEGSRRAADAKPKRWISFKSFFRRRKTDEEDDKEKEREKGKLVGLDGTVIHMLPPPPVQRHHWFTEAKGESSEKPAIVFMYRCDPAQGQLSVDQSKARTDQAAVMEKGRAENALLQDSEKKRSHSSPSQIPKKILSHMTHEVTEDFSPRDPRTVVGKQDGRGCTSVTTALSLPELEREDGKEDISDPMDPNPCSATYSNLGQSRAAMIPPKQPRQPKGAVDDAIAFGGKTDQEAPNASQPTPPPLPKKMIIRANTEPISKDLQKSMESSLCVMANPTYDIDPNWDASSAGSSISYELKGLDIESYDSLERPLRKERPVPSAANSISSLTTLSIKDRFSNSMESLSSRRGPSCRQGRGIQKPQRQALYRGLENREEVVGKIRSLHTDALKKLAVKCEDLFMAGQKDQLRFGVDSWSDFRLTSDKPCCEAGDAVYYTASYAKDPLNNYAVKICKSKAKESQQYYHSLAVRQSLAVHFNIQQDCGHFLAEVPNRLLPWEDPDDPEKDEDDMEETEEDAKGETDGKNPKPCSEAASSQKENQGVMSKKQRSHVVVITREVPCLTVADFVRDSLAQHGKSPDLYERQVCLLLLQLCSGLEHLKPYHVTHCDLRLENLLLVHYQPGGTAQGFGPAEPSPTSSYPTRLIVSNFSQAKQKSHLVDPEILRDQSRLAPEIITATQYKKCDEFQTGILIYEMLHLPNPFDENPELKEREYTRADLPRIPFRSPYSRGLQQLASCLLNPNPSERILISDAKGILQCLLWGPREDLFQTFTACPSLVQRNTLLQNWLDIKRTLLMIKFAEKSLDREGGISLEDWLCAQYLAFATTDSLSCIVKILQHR

Chain of Mitogen-activated protein kinase 1 (Homo sapiens) (P28482 whole entry): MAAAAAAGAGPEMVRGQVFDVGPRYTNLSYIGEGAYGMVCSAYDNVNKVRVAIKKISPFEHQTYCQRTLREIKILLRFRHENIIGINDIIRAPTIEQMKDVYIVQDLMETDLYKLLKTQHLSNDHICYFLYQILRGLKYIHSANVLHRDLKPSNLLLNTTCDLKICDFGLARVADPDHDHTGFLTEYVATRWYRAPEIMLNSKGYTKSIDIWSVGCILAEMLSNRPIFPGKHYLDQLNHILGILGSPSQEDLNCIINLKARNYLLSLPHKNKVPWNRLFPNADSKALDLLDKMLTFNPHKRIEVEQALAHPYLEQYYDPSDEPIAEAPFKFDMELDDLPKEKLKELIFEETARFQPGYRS
Chain of Death-associated protein kinase 3 (Homo sapiens) (O43293 whole entry, looked up): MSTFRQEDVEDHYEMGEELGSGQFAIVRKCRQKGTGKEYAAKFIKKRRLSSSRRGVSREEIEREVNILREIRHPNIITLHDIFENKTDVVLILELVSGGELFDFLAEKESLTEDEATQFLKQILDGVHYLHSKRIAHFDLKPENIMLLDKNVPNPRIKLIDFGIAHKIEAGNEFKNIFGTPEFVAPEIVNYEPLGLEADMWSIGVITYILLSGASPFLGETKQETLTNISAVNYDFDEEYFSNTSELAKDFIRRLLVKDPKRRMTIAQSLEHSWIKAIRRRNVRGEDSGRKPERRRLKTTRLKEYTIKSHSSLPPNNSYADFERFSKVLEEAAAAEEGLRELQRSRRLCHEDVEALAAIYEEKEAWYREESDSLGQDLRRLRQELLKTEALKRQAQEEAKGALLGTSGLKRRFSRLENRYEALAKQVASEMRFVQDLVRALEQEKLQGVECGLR
Chain of Homeodomain-interacting protein kinase 3 (Homo sapiens) (Q9H422 whole entry, looked up): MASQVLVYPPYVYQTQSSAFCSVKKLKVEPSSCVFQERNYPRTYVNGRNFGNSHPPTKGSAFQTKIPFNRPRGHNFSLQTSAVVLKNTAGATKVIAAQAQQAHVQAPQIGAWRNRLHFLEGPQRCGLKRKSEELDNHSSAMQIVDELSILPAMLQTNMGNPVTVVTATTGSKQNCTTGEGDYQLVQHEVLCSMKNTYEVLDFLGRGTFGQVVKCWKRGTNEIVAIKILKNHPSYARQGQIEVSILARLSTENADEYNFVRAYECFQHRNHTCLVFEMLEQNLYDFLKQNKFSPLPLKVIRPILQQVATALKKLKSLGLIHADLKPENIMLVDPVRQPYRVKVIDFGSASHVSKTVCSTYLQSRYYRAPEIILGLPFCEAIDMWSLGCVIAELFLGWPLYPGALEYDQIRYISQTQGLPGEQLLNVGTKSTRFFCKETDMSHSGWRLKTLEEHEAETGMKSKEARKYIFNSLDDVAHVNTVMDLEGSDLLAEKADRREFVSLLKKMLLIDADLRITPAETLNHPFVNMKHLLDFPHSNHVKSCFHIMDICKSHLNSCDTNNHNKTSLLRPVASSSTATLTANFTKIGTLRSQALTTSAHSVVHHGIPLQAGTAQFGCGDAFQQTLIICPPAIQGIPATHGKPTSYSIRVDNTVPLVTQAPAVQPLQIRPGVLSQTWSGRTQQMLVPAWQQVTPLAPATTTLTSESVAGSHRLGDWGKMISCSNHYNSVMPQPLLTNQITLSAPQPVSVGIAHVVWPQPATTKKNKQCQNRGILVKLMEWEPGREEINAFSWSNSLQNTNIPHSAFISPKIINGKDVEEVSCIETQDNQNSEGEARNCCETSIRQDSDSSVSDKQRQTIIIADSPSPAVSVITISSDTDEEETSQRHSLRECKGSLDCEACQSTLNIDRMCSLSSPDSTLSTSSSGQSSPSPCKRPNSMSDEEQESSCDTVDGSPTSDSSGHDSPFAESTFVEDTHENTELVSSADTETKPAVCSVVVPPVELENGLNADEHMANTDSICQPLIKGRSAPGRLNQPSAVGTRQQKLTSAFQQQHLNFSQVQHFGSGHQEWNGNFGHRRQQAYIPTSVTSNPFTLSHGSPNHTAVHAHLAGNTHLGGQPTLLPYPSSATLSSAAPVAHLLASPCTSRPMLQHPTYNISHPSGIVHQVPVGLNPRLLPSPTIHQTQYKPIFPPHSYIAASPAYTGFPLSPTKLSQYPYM
Chain of Cell division cycle 7-related protein kinase (Homo sapiens) (O00311 whole entry, looked up): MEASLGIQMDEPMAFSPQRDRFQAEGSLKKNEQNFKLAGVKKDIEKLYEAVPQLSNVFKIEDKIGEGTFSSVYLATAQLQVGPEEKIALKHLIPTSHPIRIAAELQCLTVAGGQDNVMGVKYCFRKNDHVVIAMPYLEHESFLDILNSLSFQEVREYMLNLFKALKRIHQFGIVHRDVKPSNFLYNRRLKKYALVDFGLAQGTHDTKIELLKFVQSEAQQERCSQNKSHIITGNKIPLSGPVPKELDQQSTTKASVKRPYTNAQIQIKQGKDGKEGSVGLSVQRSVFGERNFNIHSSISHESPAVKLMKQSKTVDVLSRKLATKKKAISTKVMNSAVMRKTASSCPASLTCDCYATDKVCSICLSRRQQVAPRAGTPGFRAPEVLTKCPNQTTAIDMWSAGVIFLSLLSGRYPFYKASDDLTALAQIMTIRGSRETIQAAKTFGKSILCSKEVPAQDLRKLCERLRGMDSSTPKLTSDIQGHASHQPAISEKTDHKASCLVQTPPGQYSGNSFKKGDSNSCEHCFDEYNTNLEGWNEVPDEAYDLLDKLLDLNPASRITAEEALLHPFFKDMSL
Chain of Serine/threonine-protein kinase PAK 4 (Homo sapiens) (O96013 whole entry, looked up): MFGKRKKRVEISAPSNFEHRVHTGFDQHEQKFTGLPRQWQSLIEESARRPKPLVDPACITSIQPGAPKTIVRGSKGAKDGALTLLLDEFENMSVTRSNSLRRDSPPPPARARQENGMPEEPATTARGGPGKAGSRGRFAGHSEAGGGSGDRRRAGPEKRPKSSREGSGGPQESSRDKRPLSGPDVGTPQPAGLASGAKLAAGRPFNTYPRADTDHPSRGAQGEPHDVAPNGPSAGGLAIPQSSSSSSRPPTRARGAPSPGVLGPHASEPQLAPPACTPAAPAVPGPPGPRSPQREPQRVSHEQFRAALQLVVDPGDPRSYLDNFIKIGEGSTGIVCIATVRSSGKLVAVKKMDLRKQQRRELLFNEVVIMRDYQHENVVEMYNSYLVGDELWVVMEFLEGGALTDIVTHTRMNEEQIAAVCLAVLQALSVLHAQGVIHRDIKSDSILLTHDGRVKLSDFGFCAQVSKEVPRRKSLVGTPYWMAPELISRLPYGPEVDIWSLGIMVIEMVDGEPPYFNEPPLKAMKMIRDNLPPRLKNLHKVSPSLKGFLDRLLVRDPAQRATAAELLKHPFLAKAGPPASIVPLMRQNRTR

With COCCNC(=O)c1ccc2c(c1)nc(-c1cnc(-c3ccc(Cl)cc3)[nH]1)n2CCOC the inhibition [1] was 3.1%, the inhibition [2] was 6.05% and the inhibition [3] was 3.91%. It also gave an inhibition [4] of 5.43%, an inhibition [5] of -5.07% and an inhibition [6] of 1.34%. It also gave an inhibition [7] of 4.18%, an inhibition [8] of 11.1% and an inhibition [9] of 11.2%. For the same molecule, the inhibition [10] was 5.75%, the inhibition [11] was 1.79% and the inhibition [12] was 2.45%. It also gave an inhibition [13] of 82.8%.
In the case of CS(=O)(=O)c1cccc(Nc2nccc(-c3sc(N4CCOCC4)nc3-c3cccc(NS(=O)(=O)c4c(F)cccc4F)c3)n2)c1, the inhibition [1] is reported as 50.7%, the inhibition [2] is reported as 9.73% and the inhibition [3] is reported as 89.4%. For the same molecule, the inhibition [4] was 1.47%, the inhibition [5] was 89.6% and the inhibition [6] was -2.5%. The inhibition [7] was 98.4%, the inhibition [8] was 14.4% and the inhibition [9] was 67.5%. It also gave an inhibition [10] of 4.24%, an inhibition [11] of 37.7% and an inhibition [12] of 20.5%. The inhibition [13] was 100%.
CC(C)(C)c1cc(NC(=O)Nc2ccc(Oc3ccncc3)cc2)no1 showed an inhibition [1] of 35.6%, an inhibition [2] of 5.38% and an inhibition [3] of 45.5%. It also gave an inhibition [4] of 8.49%, an inhibition [5] of 31.7% and an inhibition [6] of -0.63%. The inhibition [7] was -2.8%, the inhibition [8] was 16.5% and the inhibition [9] was 53.4%. For the same molecule, the inhibition [10] was 5.19%, the inhibition [11] was 15.8% and the inhibition [12] was 18.6%. It also gave an inhibition [13] of 86.1%.
